In patent US10280160B2, “Phthalazinone compounds and methods for the treatment of cystic fibrosis” (FLATLEY DISCOVERY LAB, LLC, priority 2013, dated 2019):

Each molecule was assayed against human F508del CFTR (Homo sapiens (Human), UniProt P13569, DEL508-508) (assay: CFTR-YFP High Throughput Assay (YFP halide flux, FRT cells)). Details: EMax normalized to the positive control; FRT cells expressing human F508del CFTR and YFP; read-out: % Efficacy.
Type: cell-based
Description: Assays for Detecting and Measuring the Effect of Compounds on F508del-CFTR Channels CFTR-YFP Assay-CFTR Corrector Protocol:
This protocol is designed to selectively screen small molecule compounds for F508del CFTR corrector activities in the YFP (yellow fluorescent protein) flux assay. In this protocol, the cells are incubated with testing compounds for 24 hours, washed with PBS, stimulated with forskolin and a standard potentiator, and fluorescence in each plate well is measured kinetically read on a 384-well plate reader, such as the Hamamatsu FDSS-6000.
YFP fluorescence intensity values are acquired at high speed before and after iodide buffer is injected to the assay cells. Iodide enters the cells via active CFTR channels in the plasma membrane, and quenches the YFP fluorescence. The rate of fluorescence quenching is proportionate to the total CFTR activity in the cell membrane. F508del CFTR correctors increase the number of CFTR molecules in the testing cell plasma membrane, and thereby accelerate YFP quenching.
This method was initially developed for bench top plate readers (Galietta, J, Jayaraman, S and Verkman, A S. Cell-based assay for high-throughput quantitative screening of CFTR chloride transport agonists. Am. J. Physiol. Cell Physiol. (2001), 281: C173), and was adapted to the HTS format (Sui J, Cotard S, Andersen J, Zhu P, Staunton J, Lee M, Lin S. Optimization of a Yellow fluorescent protein-based iodide influx high-throughput screening assay for cystic fibrosis transmembrane conductance regulator (CFTR) modulators. Assay Drug Dev Technol. (2010), 8: 656-668).
Fisher Rat Thyroid (FRT) cells stably expressing both human F508del CFTR and a halide-sensitive yellow fluorescent protein (YFP-H148Q/I152L 25,22) (Galietta et al. Am. J. Physiol Cell Physiol 281(5), C1734, 2001) were cultured on plastic surface in Coon's modified Ham's F12 medium supplemented with FBS 10%, L-glutamine 2 mM, penicillin 100 U/ml, and streptomycin 100 μg/ml. G418 (0.75-1.0 mg/ml) and zeocin (3.2 ug/ml) were used for selection of FRT cells expressing F508del CFTR and YFP. For primary screening, FRT cells were plated into 384-well black wall, transparent bottom microtiter plates (Costar; Corning Inc.) at a cell density of 20,000-40,000 per well. Test compound was applied to the cells at varying concentrations ranging from 2 nM-40 μM in either a 2-fold or 3-fold dilution series. Cells were incubated in a cell culture incubator at 37° C. with 5% CO2 for 24-26 h. Assay plates were washed with DPBS media (Thermo, cat # SH30028.02) to remove unbound cells and compound. Stimulation media (25 μL) containing 20 μM Forskolin & 30 μM P3 [6-(Ethyl-phenyl-sulfonyl)-4-oxo-1,4-dihydro-quinoline-3-carboxylic acid 2-methoxy-benzylamide] in Hams F-12 coon's modified media was added to the plate wells and incubated at room temperature for 60-120 min. 25 μL of HEPES-PBS-I buffer (10 mM HEPES, 1 mM MgCl2, 3 mM KCl, 1 mM CaCl2, 150 mM NaI) was then added and fluorescence quench curves (Excitation 500 nm/Emission 540 nm; exposure 136 ms) were immediately recorded on an FDSS-6000 plate reader (Hamamatsu). Quench rates were derived from least squares fitting of the data as described by Sui et al (2010).
CFTR-YFP Assay-CFTR Potentiator Protocol:
This protocol is designed to selectively screen small molecule compounds for F508del CFTR potentiator activities in the YFP (yellow fluorescent protein) flux assay. Such compounds act acutely to stimulate CFTR already expressed on the membrane surface. In this protocol, the cells are incubated at 27° C. for 24 hours to homogeneously boost F508del CFTR expression in the cell membrane (low temperature correction), washed with PBS, treated with test compound, and CFTR activity is stimulated with forskolin for 1-2 hr. Measurement of ion flux is initiated by addition of iodide-containing buffer, and YFP quenching is kinetically recorded using a 384-well plate reader, such as the Hamamatsu FDSS-6000. […]

Sequence of human F508del CFTR (P13569 other isoform, or with tags, fused parts or gaps del F508-F508): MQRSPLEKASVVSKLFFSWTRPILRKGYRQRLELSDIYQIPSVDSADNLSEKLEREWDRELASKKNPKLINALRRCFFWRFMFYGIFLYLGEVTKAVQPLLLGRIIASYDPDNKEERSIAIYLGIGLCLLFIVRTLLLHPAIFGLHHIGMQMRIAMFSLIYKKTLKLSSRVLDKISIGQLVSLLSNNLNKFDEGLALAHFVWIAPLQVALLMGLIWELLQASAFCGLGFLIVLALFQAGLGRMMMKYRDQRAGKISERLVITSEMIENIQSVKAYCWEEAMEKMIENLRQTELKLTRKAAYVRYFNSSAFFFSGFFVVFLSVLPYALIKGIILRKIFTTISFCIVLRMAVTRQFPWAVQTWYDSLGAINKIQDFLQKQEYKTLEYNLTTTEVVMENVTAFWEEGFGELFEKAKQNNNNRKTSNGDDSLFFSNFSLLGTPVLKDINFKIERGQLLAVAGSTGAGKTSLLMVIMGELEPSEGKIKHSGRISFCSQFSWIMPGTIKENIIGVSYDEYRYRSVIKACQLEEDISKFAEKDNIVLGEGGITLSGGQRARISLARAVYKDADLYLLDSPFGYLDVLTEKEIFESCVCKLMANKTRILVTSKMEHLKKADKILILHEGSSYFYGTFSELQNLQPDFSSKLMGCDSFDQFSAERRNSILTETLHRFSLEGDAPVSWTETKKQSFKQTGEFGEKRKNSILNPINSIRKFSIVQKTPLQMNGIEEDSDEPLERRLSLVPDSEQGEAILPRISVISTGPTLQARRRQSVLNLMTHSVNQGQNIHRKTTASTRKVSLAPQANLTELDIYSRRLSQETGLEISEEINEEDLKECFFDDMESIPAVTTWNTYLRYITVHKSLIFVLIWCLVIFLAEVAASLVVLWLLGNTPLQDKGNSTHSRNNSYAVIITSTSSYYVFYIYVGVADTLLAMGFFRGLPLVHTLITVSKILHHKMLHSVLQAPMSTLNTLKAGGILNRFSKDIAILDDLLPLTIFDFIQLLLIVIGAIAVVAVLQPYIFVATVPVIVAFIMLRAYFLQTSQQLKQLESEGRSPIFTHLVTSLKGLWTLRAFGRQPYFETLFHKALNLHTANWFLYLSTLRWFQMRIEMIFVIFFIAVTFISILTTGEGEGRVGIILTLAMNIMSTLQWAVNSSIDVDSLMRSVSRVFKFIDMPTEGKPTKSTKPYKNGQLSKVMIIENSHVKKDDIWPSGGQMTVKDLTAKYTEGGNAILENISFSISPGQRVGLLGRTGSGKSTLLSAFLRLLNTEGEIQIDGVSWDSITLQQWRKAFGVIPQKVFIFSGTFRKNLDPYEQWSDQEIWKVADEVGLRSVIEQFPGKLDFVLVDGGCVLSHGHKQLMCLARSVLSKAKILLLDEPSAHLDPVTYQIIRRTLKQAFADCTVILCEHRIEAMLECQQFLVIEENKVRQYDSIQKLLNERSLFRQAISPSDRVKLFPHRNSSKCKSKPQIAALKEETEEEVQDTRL

| Structure (SMILES) | Emax |
| --- | --- |
| Cc1nc2ccc(N(C)C(=O)Cn3nc(-c4cccc(Cl)c4)c4ccc(OC5CCOCC5)cc4c3=O)cc2o1 [Example 29, 2-(4-(3-chlorophenyl)-1-oxo-7-((tetrahydro-2H-pyran-4-yl)oxy)phthalazin-2(1H)-yl)-N-methyl-N-(2-methylbenzo[d]oxazol-6-yl)acetamide] | > 80% |
| CCOc1ccc2c(-c3cccc(Cl)c3)nn(CC(=O)N(C)c3ccc4nc(C)oc4c3)c(=O)c2c1 [Example 19, 2-(4-(3-chlorophenyl)-7-ethoxy-1-oxophthalazin-2(1H)-yl)-N-methyl-N-(2-methylbenzo[d]oxazol-6-yl)acetamide] | > 80% |
| CCOc1cc2c(=O)n(CC(=O)N(C)c3ccc4nc(C)oc4c3)nc(-c3cccc(Cl)c3)c2cc1Cl [Example 31, 2-(6-chloro-4-(3-chlorophenyl)-7-ethoxy-1-oxophthalazin-2(1H)-yl)-N-methyl-N-(2-methylbenzo[d]oxazol-6-yl)acetamide] | > 80% |
| Cc1nc2ccc(N(C)C(=O)Cn3nc(-c4cccc(F)c4)c4ccccc4c3=O)cc2o1 [Example 2, 2-(4-(3-fluorophenyl)-1-oxophthalazin-2(1H)-yl)-N-methyl-N-(2-methylbenzo[d]oxazol-6-yl)acetamide] | 30 to 80% |
| CCOc1ccc2c(-c3cccc(F)c3)nn(CC(=O)N(c3ccc4nc(C)oc4c3)C3CC3)c(=O)c2c1 [Example 21, N-cyclopropyl-2-(7-ethoxy-4-(3-fluorophenyl)-1-oxophthalazin-2(1H)-yl)-N-(2-methylbenzo[d]oxazol-6-yl)acetamide] | > 80% |
| CCN(C(=O)Cn1nc(-c2cccc(F)c2)c2ccc(OC)cc2c1=O)c1ccc2nc(C)oc2c1 [Example 8, N-ethyl-2-(4-(3-fluorophenyl)-7-methoxy-1-oxophthalazin-2(1H)-yl)-N-(2-methylbenzo[d]oxazol-6-yl)acetamide] | > 80% |
| [2H]C([2H])([2H])N(C(=O)Cn1nc(-c2cccc(Cl)c2)c2ccc(OC(C)C)cc2c1=O)c1ccc2nc(C)oc2c1 [Example 20, 2-(4-(3-chlorophenyl)-7-isopropoxy-1-oxophthalazin-2(1H)-yl)-N-(methyl-d3)-N-(2-methylbenzo[d]oxazol-6-yl)acetamide] | 30 to 80% |
